test system: Trypanosoma cruzi; assay: Trypanocidal activity against Trypanosoma cruzi IRHOD/CO/2008/SN3 DTU 1 amastigotes infected in African green monkey Vero cells after 72 hrs by Giemsa-staining based microscopic assay; format: functional, organism-based; conditions: IRHOD/CO/2008/SN3 DTU 1, Vero

SMILES | IC50 [µM]
CCCCCCCCCCCCOc1c(N(C)CCCN(C)C)c(=O)c1=O | 28.4
CCNc1c(N(C)CCCN(C)C)c(=O)c1=O | 54.5

test system: not listed separately; assay: Selectivity index, ratio of IC50 for African green monkey Vero cells to IC50 for Trypanosoma cruzi MHOM/Pe/2011/Arequipa DTU 5 trypomastigotes derived from infected Balb/c mouse; format: toxicity; conditions: read-out: Ratio IC50

SMILES | selectivity ratio
CCNc1c(N(C)CCCN(C)C)c(=O)c1=O | 30.9

test system: Trypanosoma cruzi; assay: Trypanocidal activity against Trypanosoma cruzi MHOM/Pe/2011/Arequipa DTU 5 epimastigotes after 72 hrs by resazurin dye based assay; format: functional, organism-based; conditions: MHOM/Pe/2011/Arequipa DTU 5, 72 h

SMILES | IC50 [µM]
CCCCCCCCCCCCOc1c(N(C)CCCN(C)C)c(=O)c1=O | 36.2
CCNc1c(N(C)CCCN(C)C)c(=O)c1=O | 41.3

test system: Trypanosoma cruzi; assay: Trypanocidal activity against Trypanosoma cruzi MHOM/Pe/2011/Arequipa DTU 5 trypomastigotes derived from infected Balb/c mouse after 72 hrs by resazurin dye based assay; format: functional, organism-based; conditions: MHOM/Pe/2011/Arequipa DTU 5, 72 h

SMILES | IC50 [µM]
CCNc1c(N(C)CCCN(C)C)c(=O)c1=O | 29.1

test system: not listed separately; assay: Selectivity index, ratio of IC50 for African green monkey Vero cells to IC50 for Trypanosoma cruzi TINF/CH/1956/Tulahuen DTU 6 epimastigotes; format: toxicity; conditions: read-out: Ratio IC50

SMILES | selectivity ratio
CCCCCCCCCCCCOc1c(N(C)CCCN(C)C)c(=O)c1=O | 19.9
CCNc1c(N(C)CCCN(C)C)c(=O)c1=O | 32.4

test system: not listed separately; assay: Selectivity index, ratio of IC50 for African green monkey Vero cells to IC50 for Trypanosoma cruzi IRHOD/CO/2008/SN3 DTU 1 trypomastigotes derived from infected Balb/c mouse; format: toxicity; conditions: read-out: Ratio IC50

SMILES | selectivity ratio
CCCCCCCCCCCCOc1c(N(C)CCCN(C)C)c(=O)c1=O | 12.1
CCNc1c(N(C)CCCN(C)C)c(=O)c1=O | 32.1

test system: not listed separately; assay: Selectivity index, ratio of IC50 for African green monkey Vero cells to IC50 for Trypanosoma cruzi TINF/CH/1956/Tulahuen DTU 6 trypomastigotes derived from infected Balb/c mouse; format: toxicity; conditions: read-out: Ratio IC50

SMILES | selectivity ratio
CCCCCCCCCCCCOc1c(N(C)CCCN(C)C)c(=O)c1=O | 15.3
CCNc1c(N(C)CCCN(C)C)c(=O)c1=O | 33.8

test system: Trypanosoma cruzi; assay: Trypanocidal activity against Trypanosoma cruzi TINF/CH/1956/Tulahuen DTU 6 amastigotes infected in African green monkey Vero cells after 72 hrs by Giemsa-staining based microscopic assay; format: functional, organism-based; conditions: TINF/CH/1956/Tulahuen DTU 6, Vero

SMILES | IC50 [µM]
CCCCCCCCCCCCOc1c(N(C)CCCN(C)C)c(=O)c1=O | 25.5
CCNc1c(N(C)CCCN(C)C)c(=O)c1=O | 31.6

test system: Trypanosoma cruzi; assay: Trypanocidal activity against Trypanosoma cruzi IRHOD/CO/2008/SN3 DTU 1 epimastigotes after 72 hrs by resazurin dye based assay; format: functional, organism-based; conditions: IRHOD/CO/2008/SN3 DTU 1, 72 h

SMILES | IC50 [µM]
CCCCCCCCCCCCOc1c(N(C)CCCN(C)C)c(=O)c1=O | 19.4
CCNc1c(N(C)CCCN(C)C)c(=O)c1=O | 41

test system: Trypanosoma cruzi; assay: Trypanocidal activity against Trypanosoma cruzi TINF/CH/1956/Tulahuen DTU 6 trypomastigotes derived from infected Balb/c mouse after 72 hrs by resazurin dye based assay; format: functional, organism-based; conditions: TINF/CH/1956/Tulahuen DTU 6, 72 h

SMILES | IC50 [µM]
CCCCCCCCCCCCOc1c(N(C)CCCN(C)C)c(=O)c1=O | 19.1
CCNc1c(N(C)CCCN(C)C)c(=O)c1=O | 26.6

test system: Trypanosoma cruzi; assay: Trypanocidal activity against Trypanosoma cruzi MHOM/Pe/2011/Arequipa DTU 5 amastigotes infected in African green monkey Vero cells after 72 hrs by Giemsa-staining based microscopic assay; format: functional, organism-based; conditions: MHOM/Pe/2011/Arequipa DTU 5, Vero

SMILES | IC50 [µM]
CCNc1c(N(C)CCCN(C)C)c(=O)c1=O | 27.8

test system: not listed separately; assay: Selectivity index, ratio of IC50 for African green monkey Vero cells to IC50 for Trypanosoma cruzi TINF/CH/1956/Tulahuen DTU 6 amastigotes infected in African green monkey Vero cells; format: toxicity; conditions: read-out: Ratio IC50

SMILES | selectivity ratio
CCCCCCCCCCCCOc1c(N(C)CCCN(C)C)c(=O)c1=O | 11.4
CCNc1c(N(C)CCCN(C)C)c(=O)c1=O | 28.5

test system: Trypanosoma cruzi; assay: Trypanocidal activity against Trypanosoma cruzi TINF/CH/1956/Tulahuen DTU 6 epimastigotes after 72 hrs by resazurin dye based assay; format: functional, organism-based; conditions: TINF/CH/1956/Tulahuen DTU 6, 72 h

SMILES | IC50 [µM]
CCCCCCCCCCCCOc1c(N(C)CCCN(C)C)c(=O)c1=O | 14.6
CCNc1c(N(C)CCCN(C)C)c(=O)c1=O | 27.8

test system: not listed separately; assay: Selectivity index, ratio of IC50 for African green monkey Vero cells to IC50 for Trypanosoma cruzi MHOM/Pe/2011/Arequipa DTU 5 amastigotes infected in African green monkey Vero cells; format: toxicity; conditions: read-out: Ratio IC50

SMILES | selectivity ratio
CCNc1c(N(C)CCCN(C)C)c(=O)c1=O | 32.3

test system: not listed separately; assay: Selectivity index, ratio of IC50 for African green monkey Vero cells to IC50 for Trypanosoma cruzi IRHOD/CO/2008/SN3 DTU 1 epimastigotes; format: toxicity; conditions: read-out: Ratio IC50

SMILES | selectivity ratio
CCCCCCCCCCCCOc1c(N(C)CCCN(C)C)c(=O)c1=O | 15
CCNc1c(N(C)CCCN(C)C)c(=O)c1=O | 22

test system: not listed separately; assay: Selectivity index, ratio of IC50 for African green monkey Vero cells to IC50 for Trypanosoma cruzi MHOM/Pe/2011/Arequipa DTU 5 epimastigotes; format: toxicity; conditions: read-out: Ratio IC50

SMILES | selectivity ratio
CCCCCCCCCCCCOc1c(N(C)CCCN(C)C)c(=O)c1=O | 8
CCNc1c(N(C)CCCN(C)C)c(=O)c1=O | 21.8

test system: Trypanosoma cruzi; assay: Trypanocidal activity against Trypanosoma cruzi IRHOD/CO/2008/SN3 DTU 1 trypomastigotes derived from infected Balb/c mouse after 72 hrs by resazurin dye based assay; format: functional, organism-based; conditions: IRHOD/CO/2008/SN3 DTU 1, 72 h

SMILES | IC50 [µM]
CCCCCCCCCCCCOc1c(N(C)CCCN(C)C)c(=O)c1=O | 24.1
CCNc1c(N(C)CCCN(C)C)c(=O)c1=O | 28

test system: Vero; assay: Cytotoxicity against African green monkey Vero cells assessed as reduction in cell viability after 72 hrs by resazurin dye based assay; conditions: Chlorocebus sabaeus

SMILES | IC50 [µM]
CCCCCCCCCCCCOc1c(N(C)CCCN(C)C)c(=O)c1=O | 291
CCNc1c(N(C)CCCN(C)C)c(=O)c1=O | 900

test system: not listed separately; assay: Selectivity index, ratio of IC50 for African green monkey Vero cells to IC50 for Trypanosoma cruzi IRHOD/CO/2008/SN3 DTU 1 amastigotes infected in African green monkey Vero cells; format: toxicity; conditions: read-out: Ratio IC50

SMILES | selectivity ratio
CCCCCCCCCCCCOc1c(N(C)CCCN(C)C)c(=O)c1=O | 10.3
CCNc1c(N(C)CCCN(C)C)c(=O)c1=O | 16.5

— ChEMBL document CHEMBL4411344, “Synthesis and biological evaluation of new long-chain squaramides as anti-chagasic agents in the BALB/c mouse model” (Bioorg Med Chem, 2019)
